Legend:
Assay in all cases: relative viability (nuclei count vs DMSO), 5 days (fraction); higher = more cells survive
R406 + AZD7762 = compound: COc1cc(Nc2ncc(F)c(Nc3ccc4c(n3)NC(=O)C(C)(C)O4)n2)cc(OC)c1OC [R406] + NC(=O)Nc1cc(-c2cccc(F)c2)sc1C(=O)N[C@H]1CCCNC1 [AZD7762] (partner 0.2 µM)
Method in brief: (§1)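 Lung cancer cell lines in 1536-well plates got either a single drug or a fixed anchor-drug dose together with five library-drug doses (not always all listed) in √10 steps, by pin tool, on the day after seeding. Nuclei were counted after 5 days, and relative viability is the treated-to-vehicle ratio of nuclei counts. Values are medians of duplicate plates.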

R406 + Olaparib = compound: COc1cc(Nc2ncc(F)c(Nc3ccc4c(n3)NC(=O)C(C)(C)O4)n2)cc(OC)c1OC [R406] + O=C(c1cc(Cc2n[nH]c(=O)c3ccccc23)ccc1F)N1CCN(C(=O)C2CC2)CC1 [Olaparib] (partner 8 µM)
Method in brief: as §1

Daporinad + Foretinib = compound: O=C(/C=C/c1cccnc1)NCCCCC1CCN(C(=O)c2ccccc2)CC1 [Daporinad] + COc1cc2c(Oc3ccc(NC(=O)C4(C(=O)Nc5ccc(F)cc5)CC4)cc3F)ccnc2cc1OCCCN1CCOCC1 [Foretinib] (partner 0.25 µM)
Method in brief: as §1

Daporinad + Crizotinib = compound: O=C(/C=C/c1cccnc1)NCCCCC1CCN(C(=O)c2ccccc2)CC1 [Daporinad] + C[C@@H](Oc1cc(-c2cnn(C3CCNCC3)c2)cnc1N)c1c(Cl)ccc(F)c1Cl [Crizotinib] (partner 1 µM)
Method in brief: as §1

Cell Line	relative viability (R406 + AZD7762; first compound 0.08 µM)	relative viability (R406 + AZD7762; first compound 0.253 µM)	relative viability (R406 + AZD7762; first compound 0.8 µM)	relative viability (R406 + AZD7762; first compound 2.53 µM)	relative viability (R406 + AZD7762; first compound 8 µM)	relative viability (R406 + Olaparib; first compound 0.08 µM)	relative viability (R406 + Olaparib; first compound 0.253 µM)	relative viability (R406 + Olaparib; first compound 0.8 µM)	relative viability (R406 + Olaparib; first compound 2.53 µM)	relative viability (R406 + Olaparib; first compound 8 µM)	relative viability (Daporinad + Foretinib; first compound 0.0005 µM)	relative viability (Daporinad + Foretinib; first compound 0.001581 µM)	relative viability (Daporinad + Foretinib; first compound 0.005 µM)	relative viability (Daporinad + Foretinib; first compound 0.01581 µM)	relative viability (Daporinad + Crizotinib; first compound 0.0005 µM)	relative viability (Daporinad + Crizotinib; first compound 0.001581 µM)	relative viability (Daporinad + Crizotinib; first compound 0.005 µM)	relative viability (Daporinad + Crizotinib; first compound 0.01581 µM)
201T	0.615	0.685	0.664	0.762	0.836	0.853	0.867	0.873	0.824	0.515	1.08	1.14	1.02	1.16	0.954	1.05	1.04	1.03
A549	–	–	–	–	–	0.28	0.464	0.328	0.0554	0.306	1.03	0.964	0.887	0.867	0.903	0.777	0.844	0.546
A-427	0.832	0.795	0.86	0.663	0.43	0.717	0.762	0.853	0.682	0.435	1.01	1.06	1.08	0.596	0.857	0.917	0.994	0.749
ABC-1	0.912	0.769	0.865	0.858	0.669	0.77	0.805	0.923	0.501	0.576	1.09	1.01	1.01	0.662	0.862	1.23	1.02	0.68
BEN	0.816	0.814	0.796	0.828	0.523	1.09	1.24	1.28	1.04	0.871	0.513	0.722	0.735	0.773	0.849	0.879	0.91	1.1
CAL-12T	0.531	0.641	0.695	0.714	0.637	0.71	0.746	0.747	0.687	0.55	1.09	0.938	0.758	0.272	0.659	0.535	0.367	0.185
COR-L23	–	–	–	–	–	0.385	0.354	0.334	0.246	0.209	0.993	1.01	1.14	0.282	0.819	0.651	0.568	0.153
COR-L 105	–	–	–	–	–	0.592	0.704	0.554	0.59	0.602	1.09	0.812	0.983	1.14	0.763	0.722	0.723	0.798
Calu-6	–	–	–	–	–	0.556	0.571	0.576	–	0.271	0.768	0.874	0.772	0.35	0.902	0.846	0.797	0.514
ChaGo-K-1	0.799	0.957	0.999	0.873	0.744	0.381	0.485	0.438	0.422	0.296	0.968	0.943	0.966	0.382	1.15	1.18	0.896	0.379
EBC-1	–	–	–	–	–	0.671	0.783	0.843	0.644	0.369	0.101	0.0907	0.0742	0.0756	0.185	0.166	0.162	0.181
EKVX	0.679	0.832	0.847	0.647	0.521	0.928	0.971	0.995	0.717	0.655	0.747	0.443	0.877	0.756	0.891	1.01	1.01	0.993
EMC-BAC-2	1.05	1.26	1.17	1.04	0.391	0.46	0.547	0.468	0.393	0.307	1.14	1.1	0.518	0.314	0.743	0.763	0.527	0.247
EPLC-272H	0.21	0.252	0.337	0.199	0.15	0.8	0.754	0.707	0.325	0.112	0.695	0.925	0.845	1.11	0.884	1.03	1.01	1.11
H3255	0.923	0.983	0.823	0.774	0.747	0.556	0.607	0.545	0.512	0.475	0.709	0.688	0.672	0.992	0.782	0.937	0.853	0.864
HARA	0.272	0.469	0.257	0.306	0.305	0.826	0.496	0.705	0.779	0.17	0.942	0.98	0.922	0.279	1.05	1.07	1.07	0.291

From the supplement of paper PMC10307832
